This passage reports IC50 results from patent US20240246992A1, “MACROCYCLIC LRRK2 KINASE INHIBITORS” (LES LABORATOIRES SERVIER, priority 2021, published 2024).

One may read the IC50 as the concentration that inhibits the measured activity by half.

Sequence of human recombinant LRRK2 protein (Q5S007 whole entry): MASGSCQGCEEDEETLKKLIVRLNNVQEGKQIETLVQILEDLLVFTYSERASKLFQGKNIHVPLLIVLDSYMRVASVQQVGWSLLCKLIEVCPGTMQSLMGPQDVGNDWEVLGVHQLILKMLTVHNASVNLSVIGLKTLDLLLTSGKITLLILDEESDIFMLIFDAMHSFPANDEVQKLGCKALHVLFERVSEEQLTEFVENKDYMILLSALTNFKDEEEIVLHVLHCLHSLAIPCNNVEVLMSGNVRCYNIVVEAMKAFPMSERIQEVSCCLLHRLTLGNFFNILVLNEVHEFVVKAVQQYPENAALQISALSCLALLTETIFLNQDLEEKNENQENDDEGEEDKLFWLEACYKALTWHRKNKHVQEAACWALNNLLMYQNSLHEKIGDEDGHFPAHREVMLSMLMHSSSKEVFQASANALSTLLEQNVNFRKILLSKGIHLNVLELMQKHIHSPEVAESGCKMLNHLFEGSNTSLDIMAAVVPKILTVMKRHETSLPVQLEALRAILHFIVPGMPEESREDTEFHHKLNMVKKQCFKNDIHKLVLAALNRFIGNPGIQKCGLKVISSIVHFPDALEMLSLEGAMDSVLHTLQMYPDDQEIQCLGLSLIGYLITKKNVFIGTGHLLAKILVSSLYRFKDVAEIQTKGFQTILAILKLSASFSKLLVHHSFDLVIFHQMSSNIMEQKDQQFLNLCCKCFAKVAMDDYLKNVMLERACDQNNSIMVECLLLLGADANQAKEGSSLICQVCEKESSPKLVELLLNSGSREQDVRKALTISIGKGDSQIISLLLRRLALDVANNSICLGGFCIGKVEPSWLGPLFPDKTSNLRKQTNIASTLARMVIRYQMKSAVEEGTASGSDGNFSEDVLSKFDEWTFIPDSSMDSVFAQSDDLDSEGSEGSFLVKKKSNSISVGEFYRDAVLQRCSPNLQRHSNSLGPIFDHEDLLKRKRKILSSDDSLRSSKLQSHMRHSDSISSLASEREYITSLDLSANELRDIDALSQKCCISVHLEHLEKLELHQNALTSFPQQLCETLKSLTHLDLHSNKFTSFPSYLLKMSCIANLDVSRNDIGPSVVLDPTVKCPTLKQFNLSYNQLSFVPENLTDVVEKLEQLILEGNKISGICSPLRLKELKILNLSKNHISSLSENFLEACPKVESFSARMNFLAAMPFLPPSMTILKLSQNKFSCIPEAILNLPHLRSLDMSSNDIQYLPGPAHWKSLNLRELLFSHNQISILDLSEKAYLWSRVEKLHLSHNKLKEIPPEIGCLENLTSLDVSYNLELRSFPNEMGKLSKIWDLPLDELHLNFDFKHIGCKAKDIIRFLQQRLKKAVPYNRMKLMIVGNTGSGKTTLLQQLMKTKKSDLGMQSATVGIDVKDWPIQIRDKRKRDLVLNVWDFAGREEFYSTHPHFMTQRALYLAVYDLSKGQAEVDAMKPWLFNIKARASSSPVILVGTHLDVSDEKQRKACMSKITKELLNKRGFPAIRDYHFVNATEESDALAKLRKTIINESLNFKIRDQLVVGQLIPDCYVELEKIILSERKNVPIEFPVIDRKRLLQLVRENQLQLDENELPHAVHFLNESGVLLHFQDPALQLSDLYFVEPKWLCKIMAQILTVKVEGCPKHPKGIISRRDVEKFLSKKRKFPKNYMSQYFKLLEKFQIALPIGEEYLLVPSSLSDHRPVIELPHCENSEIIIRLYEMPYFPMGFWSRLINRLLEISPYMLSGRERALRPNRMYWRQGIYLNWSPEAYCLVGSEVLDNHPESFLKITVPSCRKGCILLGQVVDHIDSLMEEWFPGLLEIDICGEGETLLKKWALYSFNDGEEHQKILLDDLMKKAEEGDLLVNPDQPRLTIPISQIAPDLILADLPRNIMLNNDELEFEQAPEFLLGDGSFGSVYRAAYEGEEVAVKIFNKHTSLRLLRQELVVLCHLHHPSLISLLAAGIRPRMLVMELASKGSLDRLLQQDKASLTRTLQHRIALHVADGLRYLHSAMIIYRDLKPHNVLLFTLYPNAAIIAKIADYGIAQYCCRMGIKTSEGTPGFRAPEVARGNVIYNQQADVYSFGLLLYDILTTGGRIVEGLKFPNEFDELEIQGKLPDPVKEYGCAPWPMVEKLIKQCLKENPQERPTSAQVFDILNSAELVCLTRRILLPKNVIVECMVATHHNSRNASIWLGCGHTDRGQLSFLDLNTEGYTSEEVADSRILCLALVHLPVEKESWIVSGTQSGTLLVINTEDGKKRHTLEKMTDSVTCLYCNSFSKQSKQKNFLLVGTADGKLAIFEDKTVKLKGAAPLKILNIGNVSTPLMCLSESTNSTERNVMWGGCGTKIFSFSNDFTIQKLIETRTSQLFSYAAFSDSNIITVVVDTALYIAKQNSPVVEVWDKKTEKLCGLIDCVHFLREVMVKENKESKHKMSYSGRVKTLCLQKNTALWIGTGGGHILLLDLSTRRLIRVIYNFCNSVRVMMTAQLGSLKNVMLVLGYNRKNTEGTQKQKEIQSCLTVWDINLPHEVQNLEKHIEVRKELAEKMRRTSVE

This test addresses human recombinant LRRK2 protein (Homo sapiens, UniProt Q5S007). Nature of the test: LRRK2 kinase activity assay (ADP-Glo, LRRKtide peptide). In kind it is biochemical. The note with it: human recombinant LRRK2 wt, LRRKtide peptide and ATP, 1 h at 37° C. In short, it runs like this:
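Human recombinant LRRK2 reacted with LRRKtide peptide and ATP for 1 h at 37 °C in the presence of compound. ADP formed measured by ADP-Glo luminescence; IC50 fitted from 10 concentrations run in duplicate.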
With `Cc1cc2[nH]nc3c2cc1OCCCNCCOc1cncc-3c1` [Example 188, 16-methyl-7,14-dioxa-4,10,19,20-tetraazatetracyclo[13.5.2.1^2,6.0^18,21]tricosa-1(20),2(23),3,5,15(22),16,18(21)-heptaene], the IC50 is < 10 nM.
As for `O=C1COc2cc(F)cc(c2)-c2n[nH]c3ccc(cc23)OCCCN1` [Example 195, 4-fluoro-7,14-dioxa-10,19,20-triazatetracyclo[13.5.2.1^2,6.0^18,21]tricosa-1(20),2(23),3,5,15(22),16,18(21)-heptaen-9-one], the IC50 was < 10 nM.
Then `C[C@@H]1CCOCCOc2nccc(n2)-c2n[nH]c3ccc(cc23)O1` [Example 45, (13R)-13-methyl-7,10,14-trioxa-5,19,20,23-tetraazatetracyclo[13.5.2.1^2,6.0^18,21]tricosa-1(20),2(23),3,5, 15(22),16,18(21)-heptaene], with < 10 nM; and `Cc1cc2[nH]nc3c2cc1OCCCNC(=O)COc1cncc-3c1` [Example 187, 16-methyl-7,14-dioxa-4,10,19,20-tetraazatetracyclo[13.5.2.1^2,6.0^18,21]tricosa-1(20),2(23),3,5,15(22),16,18(21)-heptaen-9-one], with < 100 nM.
Consider `C[C@@H]1CCOCCOc2cncc(n2)-c2n[nH]c3ccc(cc23)O1` [Example 41, (13R)-13-methyl-7,10,14-trioxa-4,19,20,23-tetraazatetracyclo[13.5.2.1^2,6.0^18,21]tricosa-1(20),2(23),3,5,15(22),16,18(21)-heptaene], for which the IC50 is < 10 nM.
Then `C[C@H]1CCOCCOc2nc(cc(N3CCCC3)n2)-c2n[nH]c3ccc(cc23)N1` [Example 39, (13S)-13-methyl-4-(pyrrolidin-1-yl)-7,10-dioxa-5,14,19,20,23-pentaazatetra cyclo[13.5.2.1^2,6.0^18,21]tricosa-1(20),2(23),3,5,15(22),16,18(21)-heptaene], with < 10 nM; and `C[C@H]1COc2ccc3[nH]nc(c3c2)-c2cnn(c2)CCOCCO1` [Example 54, (12S)-12-methyl-8,11,14-trioxa-4,5,19,20-tetraazatetracyclo[13.5.2.1^2,5.0^18,21]tricosa-1(20),2(23),3,15(22),16,18(21)-hexaene], with < 10 nM; and `C[C@@H]1COCCOCCn2cc(cc2C#N)-c2n[nH]c3ccc(cc23)O1` [Example 82, (13R)-13-methyl-8,11,14-trioxa-5,19,20-triazatetracyclo[13.5.2.1^2,5.0^18,21] tricosa-1(20),2(23),3,15(22),16,18(21)-hexaene-4-carbonitrile], with < 100 nM.
Then `C[C@H]1CCOCCOCc2nc(cn2C)-c2n[nH]c3ccc(cc23)O1` [Example 79, (13S)-4,13-dimethyl-7,10,14-trioxa-4,19,20,23-tetraazatetracyclo[13.5.2.1^2,5.0^18,21]tricosa-1(20),2,5(23),15(22),16,18(21)-hexaene], with < 100 nM; and `C[C@H]1CCOCCOCC2=NC=C(S2)c2n[nH]c3ccc(cc23)O1` [Example 66, (13S)-13-methyl-7,10,14-trioxa-23-thia-4,19,20-triazatetracyclo[13.5.2.1^2,5.0^18,21]tricosa-1(20),2,4,15(22),16,18(21)-hexaene], with < 10 nM.
Then `C[C@@H]1COc2ccc3[nH]nc(c3c2)-c2cccc(c2)OCCN[C@@H]1C` [Example 228, (11R,12S)-11,12-dimethyl-7,14-dioxa-10,19,20-triazatetracyclo[13.5.2.1^2,6.0^18,21]tricosa-1(20),2,4,6(23),15(22),16,18(21)-heptaene], with < 10 nM.
For `C[C@H]1COc2ccc3[nH]nc(c3c2)-c2cc(C#N)n(c2)CCOCCO1` [Example 85, (12S)-12-methyl-8,11,14-trioxa-5,19,20-triazatetracyclo[13.5.2.1^2,5.0^18,21] tricosa-1(20),2(23),3,15(22),16,18(21)-hexaene-4-carbonitrile], the IC50 was < 10 nM.
Then `C[C@H]1COCCCOCc2nc(cn2C)-c2n[nH]c3ccc(cc23)O1` [Example 119, (13S)-4,13-dimethyl-7,11,14-trioxa-4,19,20,23-tetraazatetracyclo [13.5.2.1^2,5.0^18,21]tricosa-1(20),2,5(23),15(22),16,18(21)-hexaene], with < 1000 nM.
Then `c1cc2[nH]nc3c2cc1OCCCNCCOc1cc-3cc(C2CCCOC2)c1` (stereo not shown) [Example 149, 4-(oxan-3-yl)-7,14-dioxa-10,19,20-triazatetracyclo[13.5.2.1^2,6.0^18,21]tricosa-1(20),2(23),3,5,15,17,21-heptaene], with < 10 nM; and `c1cc2[nH]nc3c2cc1NCCOCCOc1cc-3cc(N2CCOCC2)c1` [Example 1, 4-(morpholin-4-yl)-7,10-dioxa-13,18,19-triazatetracyclo[12.5.2.1^2,6.0^17,20] docosa-1(19),2(22),3,5,14(21),15,17(20)-heptaene], with < 10 nM.
With `FC1(F)COCCCOc2ccc3[nH]nc(c3c2)-c2cnn(c2)C1` [Example 118, 7,7-difluoro-9,13-dioxa-4,5,18,19-tetraazatetracyclo[12.5.2.1^2,5.0^17,20] docosa-1(19),2(22),3,14(21),15,17(20)-hexaene], the IC50 is < 10 nM.
Then `C[C@@H]1C[C@H](C)OCCCOc2ccc3[nH]nc(c3c2)-c2cnn1c2` [Example 132, (6R,8S)-6,8-dimethyl-9,13-dioxa-4,5,18,19-tetraazatetracyclo[12.5.2.1^2,5.0^17,20]docosa-1(19),2(22),3,14(21),15,17(20)-hexaene], with < 100 nM; and `C[C@@H]1COCCOC[C@H](C)n2cc(cn2)-c2n[nH]c3ccc(cc23)O1` [Example 93, (6S,13R)-6,13-dimethyl-8,11,14-trioxa-4,5,19,20-tetraazatetracyclo[13.5.2.1^2,5.0^18,21]tricosa-1(20),2(23),3,15(22),16,18(21)-hexaene], with < 100 nM.
Then `C[C@@H]1OCCOC[C@H](C)Oc2ccc3[nH]nc(c3c2)-c2cncc1c2` [Example 9, (7S,13S)-7,13-dimethyl-8,11,14-trioxa-4,19,20-triazatetracyclo[13.5.2.1^2,6.0^18,21]tricosa-1(20),2(23),3,5,15(22),16,18(21)-heptaene], with < 100 nM; and `O=C1COc2cccc(c2)-c2n[nH]c3ccc(cc23)OCCCN1` [Example 134, 7,14-dioxa-10,19,20-triazatetracyclo[13.5.2.1^2,6.0^18,21]tricosa-1(20),2(23), 3,5,15(22),16,18(21)-heptaen-9-one], with < 100 nM; and `C[C@@H]1CCOCCCc2ncn(n2)-c2n[nH]c3ccc(cc23)O1` [Example 125, (12R)-12-methyl-9,13-dioxa-2,4,18,19,22-pentaazatetracyclo[12.5.2.1^2,5.0^17,20]docosa-1(19),3,5(22),14(21),15,17(20)-hexaene], with < 10 nM.
Take `C[C@@H]1CCOCCOCCn2ncc(n2)-c2n[nH]c3ccc(cc23)O1` [Example 133, (14R)-14-methyl-8,11,15-trioxa-4,5,20,21,24-pentaazatetracyclo[14.5.2.1^2,5.0^19,22]tetracosa-1(21),2(24),3,16(23),17,19(22)-hexaene]: the IC50 was < 100 nM.
